Test results as given in patent publication US7291617B2, “Arylamidine derivative or salt thereof” (Toyama Chemical Co., Ltd., priority 2003, dated 2007).
Structures can show the parent of a compound that is named as a salt. Where two headings read alike, the source gives them in different places.

How the values were obtained:
[1] = tested on: Candida albicans TIMM 1623; test: Antifungal action, microbroth dilution growth inhibition; type: cell-based; conditions: read-out: IC50 (50% growth inhibitory concentration)
Method: 50% growth inhibitory concentration (IC50) was measured according to the microbroth dilution method, using, as a reference, the antifungal agent sensitivity test method proposed by the subcommittee for the antifungal agent sensitivity test, the Japanese Society for Medical Mycology (Japanese Journal of Medical Mycology, vol. 36, No. 1, pp. 62 to 64, 1995). Synthetic amino acid medium, fungal (SAAMF, manufactured by Nippon Bio-Supp. Center) was used as a medium for measurement of sensitivity. Candida albicans TIMM 1623 was cultured at 30° C. overnight on a Sabouraud agar plate medium (Eiken Chemical Co., Ltd.), and the obtained culture was suspended in a sterilized physiological saline solution. Thereafter, the suspension was diluted with a measurement medium such that the number of cells became 1×10^4 cells/ml, thereby producing an inoculum organism solution. 175 μl of a medium, 5 μl of a test agent (an agent diluted solvent in a growth control well), and 20 μl of the inoculum organism solution were added to a 96-well microplate (flat bottom, manufactured by Sumitomo Bakelite Co., Ltd.), and the mixture was stirred with a mixer. Thereafter, using a well Reader SME3400 (Scinics Co., Ltd.), an initial turbidity at a wavelength of 630 nm was measured. The above mixture was cultured at 35° C., and 36 hours later, a final turbidity was measure in the same manner. For an agent-diluted line, values were obtained by subtracting the initial turbidities from the final turbidities. For a growth control line also, values were obtained by subtracting the initial turbidities from the final turbidities. IC50 was defined as the lowest agent concentration among the test agent concentrations having a turbidity equal to or lower than the 50% value (IC50 calculated value) of a value obtained by subtracting the initial turbidity of a growth control from the final turbidity thereof.

[2] = tested on: Candida albicans TIMM 1623; test: Therapeutic effect on mouse systemic Candida albicans infection, 7 subcutaneous doses, survival to day 28; type: in vivo, ICR male mice; conditions: 0.2 ml of 0.01 mg/ml solution subcutaneously once a day, 7 times in total; five mice per group; control group all died
Method: Candida albicans TIMM 1623 was cultured at 30° C. overnight on a Sabouraud agar plate medium (Eiken Chemical Co., Ltd.), and the cultured fumgus was suspended in a sterilized physiological saline solution. Thus, a fungal solution for infection, having a concentration of approximately 10^7 cells/ml, was prepared. 0.2 ml of this fungal solution was inoculated into the tail vein of each of five ICR male mice (4-week-old, body weight of 20±1 g). 2 hours after the infection, 0.2 ml of a solution, which had been prepared by dissolving a test compound into a sterilized physiological saline solution and adjusting the concentration at 0.01 mg/ml, was administered once into the dorsal subcutis of each mouse. From the following day, the same solution was administered thereto once a day for 6 days. Thus, the above solution was administered into the dorsal subcutis of the mice 7 times in total. To mice of a control group, an equal amount of a sterilized physiological saline solution was administered. Viability of the mice was observed until the 28th day after the infection.

[3] = tested on: Candida albicans TIMM 1623; test: Therapeutic effect on mouse systemic Candida albicans infection, single subcutaneous dose, T/C survival; type: in vivo, ICR male mice; conditions: 0.1 mg/kg, administered once into the dorsal subcutis 2 hours after infection; observed until the 14th day
Method: Candida albicans TIMM 1623 was cultured at 30° C. overnight on a Sabouraud agar plate medium (Eiken Chemical Co., Ltd.), and the obtained culture was suspened in a sterilized physiological saline solution. Thus, a fungal solution for infection, having a concentration of 1×10^7 cells/ml, was prepared. This fungal solution was inoculated in a concentration of 0.2 ml (2×10^6 CFU/mouse) into the tail vein of each of five ICR male mice (4-week-old, body weight of 20±1 g). 2 hours later, 0.2 ml of a solution, which had been prepared by dissolving a test compound into a sterilized physiological saline solution and setting the concentration at 0.01 mg/ml, was administered once into the dorsal subcutis of each mouse. To mice of a control group, an equal amount of a sterilized physiological saline solution was administered.
Viability of the mice was observed until the 14th day after the infection, and the cumulative survival rate (T/C) of the treatment group to the control group was calculated, and the obtained value was used as an index of the life-prolonging effect.

[4] = Candida albicans, TIMM1623, 36 h
[5] = TIMM1623, Candida albicans TIMM 1623, SAAMF medium, 35° C., 36 hours, turbidity at 630 nm

Q: With `N=C(N)c1ccc(OCCCN2CCC(CCOc3ccc(C(=N)N)cc3)CC2)cc1` [Example 56, 4-{2-[1-(3-{4-[amino(imino)methyl]phenoxy}propyl)-4-piperidinyl]ethoxy}benzamidine Hydrochloride] as the compound, how does the IC50 [1, 4] read?
A: 0.0039 µg/mL

Q: And the “survival ratio on the 28th day after the infection” value [2]?
A: 4/5

Q: With `N=C(N)c1ccc(OCCCNCCN)cc1` [Example 10, 4-{3-[(2-aminoethyl)amino]propoxy}benzamidine hydrochloride] as the compound, how does the IC50 [1, 4] read?
A: 1 µg/mL

Q: `N=C(N)c1ccc(OCCCN2CCN(CCCOc3ccc(C(=N)N)cc3F)CC2)c(F)c1` [Example 43, 4-{3-[4-(3-{4-[amino(imino)methyl]-2-fluorophenoxy}propyl)-1-piperazinyl]propoxy}-3-fluorobenzamidine Hydrochloride] was tested. Which IC50 [1, 4] did it give?
A: 0.0313 µg/mL

Q: For `N=C(N)c1ccc(OCCCNCCCCCC(=O)O)cc1` [Example 3-2, 6-[(3-{4-[amino(imino)methyl]phenoxy}propyl)amino]hexanoic Acid Hydrochloride], which IC50 [1, 4] is on record?
A: 0.5 µg/mL

Q: Which IC50 [1, 5] does the source give for `N=C(N)c1ccc(OCCCN2CCN(CCCOc3ccc(C(=N)N)cc3)C(=O)C2=O)cc1` [Example 19, 4-{3-[4-(3-{4-[amino(imino)methyl]phenoxy}propyl)-2,3-dioxo-1-piperazinyl]propoxy}benzamidine acetate] here?
A: 0.125 µg/mL

Q: With `N=C(N)c1ccc(OCCCNC2CCN(CCCOc3ccc(C(=N)N)cc3)CC2)cc1` [Example 58, 4-(3-{[1-(3-{4-[amino(imino)methyl]phenoxy}propyl)-4-piperidinyl]amino}propoxy)benzamidine Hydrochloride] as the compound, how does the IC50 [1, 4] read?
A: 0.0313 µg/mL

Q: Which IC50 [1, 4] does the source give for `N=C(N)c1ccc(OCCCNC2CCN(CCCOc3ccc(C(=N)N)cc3)C2)cc1` (stereo not shown) [Example 57, 4-(3-{3-[(3-{4-[amino (imino)methyl]phenoxy}propyl)amino]-1-pyrrolidinyl}propoxy)benzamidine Hydrochloride] here?
A: 0.0313 µg/mL

Q: Which IC50 [1, 4] does the source give for `N=C(N)c1ccc(OCCCN2CCN(CCCOc3ccc(C(=N)N)c(F)c3)CC2)cc1F` [Example 42, 4-{3-[4-(3-{4-[amino(imino)methyl]-3-fluorophenoxy}propyl)-1-piperazinyl]propoxy}-2-fluorobenzamidine Hydrochloride] here?
A: 0.0156 µg/mL

Q: Which IC50 [1, 4] does the source give for `N=C(N)c1ccc(OCCCNCCCOc2ccc(C(=N)N)cc2)cc1` [Example 32, 4-{3-[(3-{4-[amino(imino)methyl]phenoxy}propyl)amino]propoxy}benzamidine Hydrochloride] here?
A: 0.0313 µg/mL

Q: With `N=C(N)c1ccc(OCCCNCCNCCCOc2cccc(C(=N)N)c2)cc1` [Example 74, 3-[3-({2-[(3-{4-[amino(imino)methyl]phenoxy}propyl)amino]ethyl}amino)propoxy]benzamidine Hydrochloride] as the compound, how does the IC50 [1, 4] read?
A: 0.125 µg/mL

Q: Which IC50 [1, 4] does the source give for `N=C(N)c1ccc(OCCCN2CCCN(CCCOc3ccc(C(=N)N)cc3)CC2)cc1` [Example 55, 4-{3-[4-(3-{4-[amino(imino)methyl]phenoxy}propyl)-1,4-diazepan-1-yl]propoxy}benzamidine Hydrochloride] here?
A: 0.0156 µg/mL

Q: For `N=C(N)c1ccc(OCCCCN2CCN(CCCCOc3ccc(C(=N)N)cc3)C(=O)C2=O)cc1` [Example 21, 4-{4-[4-(4-{4-[amino(imino)methyl]phenoxy}butyl)-2,3-dioxo-1-piperazinyl]butoxy}benzamidine Acetate], which IC50 [1, 5] is on record?
A: 0.25 µg/mL

Q: With `N=C(N)c1ccc(OCCN2CCN(CCOc3ccc(C(=N)N)cc3)C(=O)C2=O)cc1` [Example 20, 4-{2-[4-(2-{4-[amino(imino)methyl]phenoxy}ethyl)-2,3-dioxo-1-piperazinyl]ethoxy}benzamidine Acetate] as the compound, how does the IC50 [1, 5] read?
A: 0.125 µg/mL

Q: How did the IC50 [1, 5] turn out when `N=C(N)c1ccc(OCCCN2CCN(CCOc3ccc(C(=N)N)cc3)C(=O)C2=O)cc1` [Example 22, 4-{3-[4-(2-{4-[amino(imino)methyl]phenoxy}ethyl)-2,3-dioxo-1-piperazinyl]propoxy}benzamidine Acetate] was run?
A: 2 µg/mL

Q: For `N=C(N)c1ccc(OCCCCCN)cc1` [Example 7, 4-[(5-aminopentyl)oxy]benzamidine Hydrochloride], which IC50 [1, 4] is on record?
A: 0.5 µg/mL

Q: Which IC50 [1, 4] does the source give for `N=C(N)c1ccc(OCCCCNCCNCCCCOc2ccc(C(=N)N)cc2)cc1` [Example 26, 4-[4-({2-[(4-{4-[amino(imino)methyl]phenoxy}butyl)amino]ethyl}amino)butoxy]benzamidine Hydrochloride] here?
A: 0.0625 µg/mL

Q: How did the IC50 [1, 5] turn out when `N=C(N)c1ccc(OC/C=C/CN2CCN(CCCOc3ccc(C(=N)N)cc3)C(=O)C2=O)cc1` [Example 23, 4-({(E)-4-[4-(3-{4-[amino(imino)methyl]phenoxy}propyl)-2,3-dioxo-1-piperazinyl]-2-butenyl}oxy)benzamidine Acetate] was run?
A: 2 µg/mL

Q: What does the source list for `N=C(N)c1ccc(OCCCN2CCN(CCCOc3ccc(C(=N)N)cc3)CC2)cc1` [Example 40-2, 4-{3-[4-(3-{4-[amino(imino)methyl]phenoxy}propyl)-1-piperazinyl]propoxy}benzamidine hydrochloride]?
A: IC50 [1, 4]: 0.0039 µg/mL; survival ratio on the 28th day after the infection [2]: 4/5

Q: Which IC50 [1, 4] does the source give for `N=C(N)c1ccc(OCCCNCCNCCOc2ccc(C(=N)N)cc2)cc1` [Example 27, 4-[3-({2-[(2-{4-[amino(imino)methyl]phenoxy}ethyl)amino]ethyl}amino)propoxy]benzamidine Hydrochloride] here?
A: 0.0313 µg/mL

Q: How did the IC50 [1, 4] turn out when `N=C(N)c1ccc(OCCCN)cc1` [Example 9-2, 4-(3-aminopropoxy)benzamidine Hydrochloride] was run?
A: 0.5 µg/mL

Q: For `N=C(N)c1ccc(OCCNCCNCCOc2ccc(C(=N)N)cc2)cc1` [Example 25, 4-[2-({2-[(2-{4-[amino(imino)methyl]phenoxy}ethyl)amino]ethyl}amino)ethoxy]benzamidine Hydrochloride], which IC50 [1, 4] is on record?
A: 0.0156 µg/mL

Q: `N=C(N)c1ccc(OCCCNCCNCCCOc2ccc(C(=N)N)cc2)cc1` [Example 24, 4-[3-({2-[(3-{4-[amino(imino)methyl]phenoxy}propyl)amino]ethyl}amino)propoxy]benzamidine hydrochloride] was tested. Which IC50 [1, 4] did it give?
A: 0.0078 µg/mL

Q: What about the “cumulative survival rate (T/C) of the treatment group to the control group” value [3] of the same compound?
A: 180

Q: What about the “survival ratio on the 28th day after the infection” value [2] of the same compound?
A: 3/5

Q: With `CNCCCOc1ccc(C(=N)N)cc1` [Example 2, 4-[3-(methylamino)propoxy]benzamidine Hydrochloride] as the compound, how does the IC50 [1, 4] read?
A: 2 µg/mL

Q: With `N=C(N)c1ccc(OCCCCN)cc1` [Example 5, 4-(4-aminobutoxy)benzamidine hydrochloride] as the compound, how does the IC50 [1, 4] read?
A: 0.25 µg/mL
